Marks after values point to notes of the source that are not given here.
Assays:
CNS-infiltrating cells = test: Fourth MOG EAE protocol, flow cytometric analysis of CNS-infiltrating cells at onset and peak; type: in vivo, C57BL/6 mice
Protocol: A fourth EAE experiment was run similarly to the above, but was designed to examine the effect of MGBG on cell populations during onset and peak disease. In this protocol, there were 3 experimental groups with 20 mice/group and 1 mock-immunized group with 8 mice. Fingolimod was dosed at 1 mpk QD, MGBG at 30 mpk BID, and the pertussis toxin was administered at 165 ng/dose for both injections. Flow cytometric analysis was performed on CNS-infiltrating cells from 16 mice from each of the vehicle-, fingolimod- and MGBG-treated groups, as well as from all mice in the mock-immunized group. Half of the analyzed mice from each group were collected at the time of EAE onset in the vehicle group and half were collected at the time of EAE peak in the vehicle group. Mouse termination was over eight separate days, because individual mouse in the vehicle group reached EAE onset and EAE peak on different days. Eight (8) of the mice in the vehicle group were sacrificed at each time-point. For each of these mice, a matching mouse from each of Groups 2 and 3 was sacrificed on the same day. For each two (2) of these vehicle group mice, a matching mouse from Group 4 was sacrificed. When selecting matching mice from other groups for termination, the mouse with the highest EAE score was chosen. If no mouse in the group had signs of EAE, a mouse was chosen at random.

[1] = tested on: collagen-induced arthritis (CIA) model; test: Murine collagen-induced arthritis; type: in vivo, DBA/1 mice; conditions: mice, 25 mg/kg PO BID
Source text: The collagen-induced arthritis (CIA) model is considered a suitable model for studying potential drugs active in human arthritis because of the many immunological and pathological similarities to human rheumatoid arthritis (RA), the involvement of localized major histocompatibility, […] class-II-restricted T helper lymphocyte activation, and the similarity of histological lesions. See, e.g., Rosloniec E F et al., “Collagen-Induced Arthritis,” Current Protocols in Immunology, Unit 15.5 (1993). See also the model using a monoclonal antibody to CD18 and VLA-4 integrins described in Issekutz, A. C. et al., Immunology (1996) 88:569. […]
Data. […] Edema is measured on days 18-20, 22-27, and 29-34. Inflammation is assessed by infiltration of inflammatory cells and edema. Post-euthanasia, terminal blood draws are collected, heparinized, and frozen at −70° C. until analyzed for cytokines such as osteopontin, TNFalpha, IL-1, CRP, MCP1, MIP-lbeta, RANTES, IFNgamma, TGFbeta, IP-10, IL-17, and MMP9. […] Bone resorption is quantified by presence of osteoclasts, defects in or loss of medullary trabecular or cortical bone. Cartilage damage is assessed by examining the severity and spread of chondrocyte loss and collagen disruption. […]
Statistical Analysis. Clinical data for paw scores (means for animal) are analyzed by determining the area under the dosing curve (AUC) for days 1-15. […]

[2] = Multi-species allometric scaling, predicted human pharmacokinetic parameters; set-up: species or system humans; conditions: based on Mouse, Dog, Rhesus
Source text: Multi-species allometric scaling based on pharmacokinetic parameters disclosed in Tables 2 and 3 was employed to calculate predicted pharmacokinetic parameters in humans according to methods known in the art. See, e.g., Ings R M, “Interspecies scaling and comparisons in drug development and toxicokinetics,” Xenobiotica, 1990 November; 20(11):1201-31 and Khor, S P et al., “Dihydropyrimidine dehydrogenase inactivation and 5-fluorouracil pharmacokinetics: allometric scaling of animal data, pharmacokinetics and toxicodynamics of 5-fluorouracil in humans,” Cancer Chemother Pharmacol (1997) 39(3): 833-38. Expected values are given below in Tables 6 and 7.

For `CC(/C=N/NC(=N)N)=N\NC(=N)N` [MGBG, 1,1′ [methylethanediylidene]dinitrilodiguanidine], the “CD4+ IFNy+” value (CNS-infiltrating cells; Onset) was 3.19 +/− # cells (10^3), the “CD4+ IFNγ+” value (CNS-infiltrating cells; Onset) was 9.57 % cells and the “CD4+ IL-17A+ IFNy+” value (CNS-infiltrating cells; Onset) was 1.56 +/− # cells (10^3). For the same molecule, the “CD4+ IL-17A+ IFNγ+” value (CNS-infiltrating cells; Onset) was 4.14 % cells, the “CD4+ IFNy+” value (CNS-infiltrating cells; Peak) was 4.57 +/− # cells (10^3) and the “CD4+ IFNγ+” value (CNS-infiltrating cells; Peak) was 9.37 % cells. The “CD4+ IL-17A+ IFNy+” value (CNS-infiltrating cells; Peak) was 3.01 +/− # cells (10^3), the “CD4+ IL-17A+ IFNγ+” value (CNS-infiltrating cells; Peak) was 5.45 % cells and the “CNS infiltration by proinflammatory cells” value (CNS-infiltrating cells; fourth study, MGBG 30 mpk BID) was “reduced”. The “proportion and number of infiltrating dendritic cells” value (CNS-infiltrating cells; fourth study, MGBG 30 mpk BID vs fingolimod 1 mpk QD) was “reduced in MGBG-treated mice more than in fingolimod-treated mice”, the “CD11c+ of CD4− CD45.2+ high cells In Peak of Disease in Animals Without EAE Disease” value (CNS-infiltrating cells; subset of animals which did not develop disease when vehicle-treated animals were at peak) was 2.93 +/− 0.37 and the “early phase of paw swelling/inflammation” value [1] was “did affect the early phase of paw swelling/inflammation”. For the same molecule, the “efficacy as a disease-modifying anti-rheumatic drug (DMARD)” value [1] was “not efficacious”, the CL ([2]; IV) was 7.9 mL/min/kg and the VSS ([2]; IV) was 9.1 L/kg. The t1/2 ([2]; IV) was 13.3 h, the CL ([2]; IV, Rat) was 7.7 mL/min/kg and the VSS ([2]; IV, Rat) was 9.0 L/kg. It also gave a t1/2 ([2]; IV, Rat) of 13.4 h, a CL ([2]; ORAL) of 20.9 mL/min/kg and a VSS ([2]; ORAL) of 41.6 L/kg. It also gave a t1/2 ([2]; ORAL) of 23.0 h, a CL ([2]; ORAL, Rat) of 21.0 mL/min/kg and a VSS ([2]; ORAL, Rat) of 42.4 L/kg. It also gave a t1/2 ([2]; ORAL, Rat) of 23.3 h.

From patent US10085955B2, “Methods and compositions for treatment of demyelinating diseases” (Pathologica LLC, priority 2013, dated 2018)
